Assay results from patent US12459940B2, “Oxazole compound as multi-targeted inhibitor of IRAK4 and BTK” (SHANGHAI FOSUN PHARMACEUTICAL INDUSTRIAL DEVELOPMENT CO., …, priority 2019, dated 2025).
Read-outs that look alike come from different tables or passages of the source.

How the values were obtained:
[1] = system: TMD8 human B-cell lymphoma cells; test: TMD-8 cell proliferation inhibition (CellTiter-Glo); format: cell-based; settings: TMD8, 72 h, treated for 3 days
Method: TMD8 human B-cell lymphoma cells were cultured in a 37° C., 5% CO2 incubator. The composition of medium was RPMI1640 (GIBCO, Cat #22400-089); the supplementary compositions were 10% FBS (Hyclone, Cat #SH30084.03); 1% PenStrep (Thermo, Cat #SV30010).
(§1) The tumor cell lines OCI-LY10 and TMD8 were used to detect the effect of the compound on inhibiting tumor cell proliferation in vitro. The tumor cell line was cultured in a 37° C., 5% CO2 incubator according to the culture conditions shown, and passaged regularly, then the cells in the logarithmic growth phase were taken, counted, and spread in a 96-well plate (the cells in each well were adjusted to an appropriate concentration, a total of […] per well was added). After incubating overnight in a 37° C., 5% CO2 incubator, drugs with different concentration gradients (10 μL of drug solution was added) were added and treated for 3 days, then 50 μL of CellTiter-Glo working solution was added to each well, and the cell plate was wrapped with aluminum foil to avoid light. The culture plate was shaken on an orbital shaker for 2 minutes to induce cell lysis, and placed at room temperature for 10 minutes to stabilize the luminescence signal, then the luminescence signal was detected on the 2104 EnVision plate reader.
(§2) The Inhibition rate (IR) of the tested compound was calculated using the following formula: IR (%)=(1−(RLU compound−RLU blank control)/(RLU solvent control−RLU blank control))*100%.
(§3) The inhibition rates of different concentrations of the compounds were calculated in Excel, and then the inhibition curves were made by GraphPad Prism software and the related parameters were calculated, including the minimum inhibition rate, the maximum inhibition rate and IC50.

human IRAK4 = target: T1, human IRAK4 (Homo sapiens, UniProt Q9NWZ3); test: In vitro IRAK4 kinase activity, 33P isotope-labeled kinase activity assay (Reaction Biology Corp); format: biochemical
T1 construct: purchased Reaction Biology Corp
T1 sequence (Q9NWZ3 1-460): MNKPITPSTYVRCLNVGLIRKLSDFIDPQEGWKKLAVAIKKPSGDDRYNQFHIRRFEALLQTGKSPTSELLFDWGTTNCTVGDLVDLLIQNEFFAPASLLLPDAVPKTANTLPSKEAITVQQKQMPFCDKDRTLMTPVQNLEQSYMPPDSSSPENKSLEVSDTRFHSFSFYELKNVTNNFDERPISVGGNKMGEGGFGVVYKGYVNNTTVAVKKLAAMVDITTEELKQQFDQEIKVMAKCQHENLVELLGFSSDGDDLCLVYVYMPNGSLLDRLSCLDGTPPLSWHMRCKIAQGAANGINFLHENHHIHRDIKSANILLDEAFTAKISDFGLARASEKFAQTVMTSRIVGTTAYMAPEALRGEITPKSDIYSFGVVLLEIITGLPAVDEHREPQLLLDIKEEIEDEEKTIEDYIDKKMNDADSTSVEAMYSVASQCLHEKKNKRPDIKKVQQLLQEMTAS
Method: The IC50 values were determined using ^33P isotope-labeled kinase activity assay (Reaction Biology Corp) to evaluate the inhibitory ability of the tested compounds on human IRAK4.
(§4) Buffer conditions: 20 mM Hepes (pH 7.5), 10 mM MgCl2, 1 mM EGTA, 0.02% Brij35, 0.02 mg/mL BSA, 0.1 mM Na3VO4, 2 mM DTT, 1% DMSO.
Test procedure: At room temperature, the tested compound was dissolved in DMSO to prepare a 10 mM solution for later use. The substrate was dissolved in a newly prepared buffer solution, and the tested IRAK4 kinase was added thereto and mixed evenly. The DMSO solution dissolved with the tested compound was added to the above reaction mixture mixed evenly using acoustic technique (Echo 550). After incubation for 15 minutes, ^33P-ATP was added to initiate the reaction.

[2] = system: OCI-LY10 human B-cell lymphoma cells; test: OCI-LY10 cell proliferation inhibition (CellTiter-Glo); format: cell-based; settings: OCI-Ly10, 72 h, treated for 3 days
Method: OCI-LY10 human B-cell lymphoma cells were cultured in a 37° C., 5% CO2 incubator. The composition of medium was IMDM (GIBCO, Cat #12440053); the supplementary compositions were 20% FBS (Hyclone, Cat #SH30084.03); 1% PenStrep (Thermo, Cat #SV30010).
as §1, §2, §3

human BTK = target: T2, human BTK (Homo sapiens, UniProt Q06187); test: In vitro BTK kinase activity, 33P isotope-labeled kinase activity assay (Reaction Biology Corp); format: biochemical; settings: 33P-ATP, 2 hours at room temperature
T2 construct: purchased Reaction Biology Corp
T2 sequence (Q06187 whole entry): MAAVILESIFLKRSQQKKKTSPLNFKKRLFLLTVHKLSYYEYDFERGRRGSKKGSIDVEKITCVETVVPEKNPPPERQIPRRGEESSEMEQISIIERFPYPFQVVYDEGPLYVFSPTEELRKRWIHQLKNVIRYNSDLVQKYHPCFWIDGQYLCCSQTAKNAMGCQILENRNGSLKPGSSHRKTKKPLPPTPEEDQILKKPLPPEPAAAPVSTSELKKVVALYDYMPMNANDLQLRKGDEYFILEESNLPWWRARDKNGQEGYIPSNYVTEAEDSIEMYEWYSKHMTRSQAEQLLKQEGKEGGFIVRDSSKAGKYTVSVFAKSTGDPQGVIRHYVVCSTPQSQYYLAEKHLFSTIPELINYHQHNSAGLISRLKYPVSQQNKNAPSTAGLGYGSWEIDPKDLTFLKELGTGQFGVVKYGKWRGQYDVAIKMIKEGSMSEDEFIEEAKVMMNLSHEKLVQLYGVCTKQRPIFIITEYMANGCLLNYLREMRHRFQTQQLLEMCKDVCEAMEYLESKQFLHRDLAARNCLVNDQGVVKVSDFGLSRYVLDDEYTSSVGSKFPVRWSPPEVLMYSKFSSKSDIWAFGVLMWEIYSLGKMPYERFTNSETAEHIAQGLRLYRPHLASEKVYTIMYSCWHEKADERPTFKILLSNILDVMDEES
Method: The IC50 values were determined using ^33P isotope-labeled kinase activity assay (Reaction Biology Corp) to evaluate the inhibitory ability of the tested compounds on human BTK.
as §4
Test procedure: At room temperature, the tested compound was dissolved in DMSO to prepare a 10 mM solution for later use. The substrate was dissolved in a newly prepared buffer solution, and the tested BTK kinase was added thereto and mixed evenly. The compound dissolved in DMSO was added to the kinase reaction mixture through Echo 550 (Acoustic technology; Nanoliter range). After incubation for 20 minutes at room temperature, ^33P-ATP was added to initiate the reaction. The reaction was carried out at room temperature for 2 hours, and the radioactivity of the reaction liquid point was detected by filtration-binding method with P81 ion exchange filter paper. The kinase activity data were expressed by comparing the kinase activity of the group containing the tested compound with the kinase activity of the blank group (only containing DMSO), and the IC50 value was obtained by curve fitting by Prism4 software (GraphPad), the experimental results are shown in Table 10.

[3] = system: TNF-α production in THP-1 cells; test: THP-1 cytological TNFa ELISA assay (LPS-stimulated); format: cell-based; settings: Homo sapiens, TNF-α in culture supernatant, 150 ng/mL LPS, 18 hours
Method: THP-1 human acute […] leukemia cells were purchased from ATCC (Cat #TIB-202) and cultured at 37° C. in 5% CO2 incubator. The composition of medium was RPMI1640 (Gibco, Cat #22400-105), and the supplementary compositions were 10% FBS (Gibco, Cat #10091148); 1% PenStrep (Gibco, Cat #15140); 0.05 mM 2-Mercaptoethanol (Sigma, Cat #M6250).
TNF-α Elisa kit was used to detect the content of TNF-α in cell culture supernatant samples. TNF-α was produced by stimulating THP-1 cells with 150 ng/mL LPS (Sigma, Cat #L6529).
THP-1 cells cultured normally at logarithmic growth stage were seeded in a 96-well plate (Corning #3599) at a certain concentration (1*10^5/100 μL) and then put into a cell incubator for incubation. After two hours, 16.7 μL of different concentrations of the compound to be tested (8*final concentration) were added and incubated in an incubator. After one hour, 16.7 μL of 1200 ng/mL LPS was added and incubated in an incubator. After 18 hours, the culture supernatant samples were collected by centrifugation, and the content of TNF-α could be detected by TNF-α Elisa kit. Finally, OD signals (OD450-OD570) were read on envision board reader.
The OD450-OD570 signal value was converted into a percentage inhibition rate. Inhibition rate %=(ZPE−sample)/(ZPE−HPE)*100.
“HPE” refers to the OD450-OD570 signal value of the control well without LPS stimulated cells, and “ZPE” refers to the OD450-OD570 signal value of the control well with LPS stimulated cells. The IC50 value of the compound was calculated by XLFit in the excel add-in. Y=Bottom+(Top−Bottom)/(1+(IC50/X)^HillSlope). Equation: […]

OCI-LY3 cell line = test: OCI-LY3 cell proliferation inhibition (CTG); format: cell-based; settings: Homo sapiens, incubated for 72 hours
Method: The tumor cell line used in this experiment was provided by Nanjing Cobioer Biotechnology Co., Ltd. See Table 13 below for specific information.
The tumor cell lines OCI-LY3 were used to detect the effect of the compound on inhibiting tumor cell proliferation in vitro. The OCI-LY3 cell line was cultured in the corresponding medium at 37° C. and 5% CO2, and the logarithmic growth phase cells were used in the experimental plating. The cells were collected and centrifuged at 800 rpm for 5 minutes, and the culture medium was re-suspended and spread in a 96-well plate. After incubating overnight in a 37° C., 5% CO2 incubator, the cells with different concentration gradients (10 μL of prepared diluent of the tested compound) were incubated for 72 hours, and the cell culture plates were incubated with CTG reagent at room temperature and away from light for 30 minutes, and then recovered to room temperature. 100 μL/hole of CTG solution was added into the biosafety cabinet away from light, and the plate shaker was shaken and mixed evenly away from light for 2 minutes, and incubated at room temperature away from light for 10 minutes. The luminescence values were read and recorded using the Perkin Elmer Envision 2104 MuLtilabel Reader.
The results of luminescence values measured at each drug concentration were normalized with the luminescence values of the blank control group, and the ratio of this value to the DMSO group was taken as the cell inhibition rate (%). Using GraphPad software, the logarithm of drug concentration (log drug concentration) versus inhibition rate was plotted, and the software automatically fitted and calculated IC50 value and 95% confidence limit value by log (inhibitor) vs. normalized response algorithm of nonlinear regression.

IC50 (human IRAK4; 33P-ATP, 120 minutes at room temperature, read-out: IRAK4/IC50)	SMILES	IC50 [1]	IC50 (human IRAK4)	IC50 [2]	IC50 (human BTK)	IC50 [3]	IC50 (OCI-LY3 cell line)
	Cc1cc(-c2nc(C(=O)Nc3cn4cc(CCC(=O)O)nc4cc3N3CCC(C)(C)CC3)co2)ccn1 [WX016]	221 nM	0.9 nM	466 nM	8.9 nM	170 nM	
	Cc1cc(-c2nc(C(=O)Nc3cn4cc(CCC(C)(C)O)nc4cc3-c3ccccc3)co2)ccn1 [WX021]	215 nM	0.5 nM	171 nM	13.9 nM	15 nM	
	Cc1cc(-c2nc(C(=O)Nc3cn4cc(C(C)(C)O)nc4cc3N3CCCCC3)co2)ccn1 [WX040]		1.2 nM	87 nM	3.3 nM	38 nM	283 nM
3.4 nM	Cc1cc(-c2nc(C(=O)Nc3cn4cc(CCC(C)(C)O)nc4cc3N3CCC(C(C)(C)O)CC3)co2)ccn1 [WX045]			77 nM	28.6 nM		270 nM
